Assay results from ChEMBL document CHEMBL4507303, “Data for DCP probe TP-004” (2021).

Biological target: Endothelin-1 receptor (Homo sapiens, UniProt P25101)
Assay: Inhibition of [125I]-endothelin-1 binding to EDNRA; call rule not given here

Sequence of Endothelin-1 receptor (P25101 whole entry): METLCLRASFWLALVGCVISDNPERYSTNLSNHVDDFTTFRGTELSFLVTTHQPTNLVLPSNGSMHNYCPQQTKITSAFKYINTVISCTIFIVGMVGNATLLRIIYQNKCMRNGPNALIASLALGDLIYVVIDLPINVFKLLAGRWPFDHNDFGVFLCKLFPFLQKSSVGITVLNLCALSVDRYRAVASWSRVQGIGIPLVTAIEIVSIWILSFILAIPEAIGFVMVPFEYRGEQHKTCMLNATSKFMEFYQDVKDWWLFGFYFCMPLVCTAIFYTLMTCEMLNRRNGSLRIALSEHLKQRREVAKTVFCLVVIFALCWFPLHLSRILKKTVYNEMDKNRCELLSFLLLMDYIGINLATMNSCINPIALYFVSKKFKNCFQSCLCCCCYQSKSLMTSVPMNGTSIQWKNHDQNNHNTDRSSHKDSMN

Q: `FC(F)(F)c1cc(-c2ccccc2)c2nncn2c1` [TPn-004] was tested. Which IC50 did it give?
A: > 10 µM (not active)
